Laboratory results as given in patent publication US5292521A, “Solid oral preparation containing a pyrrolidine derivative with a catechol group” (priority 1990, dated 1994).
Read-outs that look alike come from different tables or passages of the source.

Columns and labels:
[1] = Oral administration to fasted beagles with ascorbic, citric or tartaric acid, plasma drug disposition parameters (Experimental Example 3); assay type: in vivo; conditions: for AUC(0-t) at 6 h / Cmax / Tmax: dog, plasma, po, 3 mg/kg, n=4; for AUC(0-t) at 6 h: read-out: AUC (0-6 hr) mean ± SE; for Cmax: read-out: Cmax mean ± SE; for Tmax: read-out: Tmax mean ± SE (converted)
From the text: Compound (IX) and ascorbic acid, citric acid or tartaric acid were weighed, pulverized thoroughly and mixed together in an agate mortar. The mixture was divided into portions and filled in gelatin capsules (No. 1 or No. 00) and the gap in each capsule was further filled with lactose to obtain a sample. Separately, compound (IX) was formulated into a powder of five-fold dilution with lactose and filled in capsules in a similar manner to that described above to obtain a control sample.
The dose of compound (IX) was adjusted to 3 mg/kg in all the cases, while that of ascorbic acid was adjusted to three levels, i.e. 3 mg/kg, 9 mg/kg and 15 mg/kg and that of each of citric acid and tartaric acid was adjusted to one level of 15 mg/kg.
(§1) (a) Administration and collection of blood sample
The capsule of compound (IX) was given to each of 4 beagles (average body weight 9.53 kg) together with 30 ml of water by oral administration after fasting overnight (14 hours). The experiment was conducted by the crossover administration method while the beagles were kept fasting.
An internal standard substance (IS 50 ng in 50 μl) was added to 1 ml of blood plasma. After extraction with 5 ml of ethyl acetate, the solvent was distilled off. 100 μl of a citrate buffer solution (pH 3.5) was added thereto to form a solution again, which was washed with 1 ml of diethyl ether. The lower layer was separated and 50 μl of methanol was added thereto. 50 to 100 μl thereof was injected into an instrument for high-performance liquid chromatography (HPLC) for determination. Separately, blood plasma containing known amounts of compound (IX) and IS was treated to prepare an addition/recovery calibration curve. The concentration was determined from the ratio of the peak height of compound (IX) to that of IS. The detection limit in this method was 0.2 ng/ml of plasma.
(§2) (c) HPLC determination conditions
A HPLC pump used was CCPD mfd. by Toyo Soda Mfg. Co., Ltd. 1.5 ml/min of a citrate buffer (pH 3.5)/methanol mixture 80:1 (V/V) was introduced therein. The sample was injected into the instrument with a WISP 710B auto-sampler mfd. by Waters at intervals of about 50 minutes. A reversed phase Nucleosil (trade name) 7C6H5 column (4.6×250 mm) with a prefilter was used as the analysis column. The detector used was an ECD-100 electrochemical detector mfd. by Acome. The voltage was +650 mV (against a SEC electrode).
The citrate buffer solution (pH 3.5) was prepared by dissolving 26.25 g of citric acid, 16.58 g of anhydrous sodium acetate, 12.25 g of sodium hydroxide, 0.8375 g of disodium ethylenediaminetetraacetate, 93.8 ml of glacial acetic acid and 35.9 ml of 60% perchloric acid in 2500 ml of distilled water.
The AUC value in the period of 0 to 6 hours was determined from each of these curves. The results are given in FIG. 6, which is a bar graph for the comparison of the AUC values of the respective samples.

[2] = Oral administration to fasted beagles with L-cysteine or L-aspartic acid, plasma drug disposition parameters (Experimental Example 4); assay type: in vivo; conditions: for AUC(0-t) at 8 h / Cmax / Tmax: dog, plasma, po, 3 mg/kg; for AUC(0-t) at 8 h: read-out: AUC (0-8 hr) mean ± SE; for Cmax: read-out: Cmax mean ± SE; for Tmax: read-out: Tmax mean ± SE
Experimental: A similar mixture to that described above was prepared except that L-cysteine was replaced by 350 mg of L-aspartic acid.
as §1
An internal standard substance (IS 20 ng in 200 μl) was added to 1 ml of blood plasma. After dilution with 2 ml of water, the aqueous solution was passed through a BONDELUTE (trade name) C18 column previously washed with 3 ml of methanol containing 0.1% of acetic acid and 9 ml of water. After further washing with 9 ml of water and 2 ml of acetonitrile, the sample was eluted with 1.2 ml of methanol containing 0.1% of perchloric acid. The solvent was distilled off and the residue was dissolved in 200 μl of a 0.1% acetic acid aqueous solution/methanol mixture (2/1, V/V). 50 to 100 μl thereof was injected into an instrument for HPLC for determination. Separately, blood plasma containing known amounts of compound (IX) and IS was treated to prepare an addition/recovery calibration curve. The concentration was determined from the ratio of the peak height of compound (IX) to that of IS. The detection limit in this method was 0.05 ng/ml of plasma.
as §2
A HPLC pump used was CCPD mfd. by Toyo Soda Mfg. Co., Ltd. 1.35 ml/min of an aqueous solution containing 0.1% of perchloric acid and 0.01% of a disodium ethylenediaminetetraacetate/methanol mixture 80:9 (V/V) was introduced therein. The sample was injected into the instrument with a WISP 710B auto-sampler mfd. by Waters at intervals of about 50 minutes. A reversed phase ODS-120 T column (4.6×250 mm) with a prefilter was used as the analysis column. The detector used was an ECD-100 electrochemical detector mfd. by Acome. The voltage was +650 mV (against a SEC electrode).

[3] = 3 mg/kg oral + ascorbic acid 3 mg/kg (1:1)
[4] = 3 mg/kg oral + ascorbic acid 9 mg/kg (1:3)
[5] = 3 mg/kg oral + ascorbic acid 15 mg/kg (1:5)
[6] = 3 mg/kg oral + citric acid 15 mg/kg (1:5)
[7] = 3 mg/kg oral + tartaric acid 15 mg/kg (1:5)
[8] = 3 mg/kg oral, no organic acid (control)
[9] = 3 mg/kg oral + L-aspartic acid 15 mg/kg, n=2
[10] = 3 mg/kg oral + L-cysteine 15 mg/kg, n=2
[11] = 3 mg/kg oral, none (control), n=4

**Q.** With `Oc1ccc([C@@H]2CNC[C@H]2c2cccc(O)c2Cl)cc1O` (relative stereo) [compound (IX)] as the molecule, how does the Addition effect ratio ([1]; 3 mg/kg oral + ascorbic acid 3 mg/kg (1:1), AUC ratio to no additive) read?
**A.** The Addition effect ratio was 1.9.

**Q.** And the Addition effect ratio ([1]; 3 mg/kg oral + ascorbic acid 9 mg/kg (1:3), AUC ratio to no additive)?
**A.** The Addition effect ratio was 4.8.

**Q.** And the “increase of AUC value vs no added acid” value ([1]; 3 mg/kg oral + ascorbic acid 15 mg/kg)?
**A.** Its value is 7 -fold.

**Q.** And the Addition effect ratio ([1]; 3 mg/kg oral + ascorbic acid 15 mg/kg (1:5), AUC ratio to no additive)?
**A.** The Addition effect ratio was 7.0.

**Q.** What about the Addition effect ratio ([1]; 3 mg/kg oral + citric acid 15 mg/kg (1:5), AUC ratio to no additive) of the same molecule?
**A.** The Addition effect ratio was 3.3.

**Q.** And the Addition effect ratio ([1]; 3 mg/kg oral + tartaric acid 15 mg/kg (1:5), AUC ratio to no additive)?
**A.** The Addition effect ratio was 2.7.

**Q.** What about the Addition effect ratio ([1]; 3 mg/kg oral, no organic acid, base) of the same molecule?
**A.** The Addition effect ratio was 1.0.

**Q.** What about the AUC(0-t) at 6 h [1, 3] of the same molecule?
**A.** The AUC(0-t) at 6 h was 28.4 ± 6.5 ng·h/mL.

**Q.** What about the Cmax [1, 3] of the same molecule?
**A.** Its Cmax is 33.8 ± 13.2 ng/mL.

**Q.** And the Tmax [1, 3]?
**A.** The Tmax was 34 min.

**Q.** What about the AUC(0-t) at 6 h [1, 4] of the same molecule?
**A.** Its AUC(0-t) at 6 h is 72.6 ± 18.5 ng·h/mL.

**Q.** What about the Cmax [1, 4] of the same molecule?
**A.** Its Cmax is 187 ± 91.7 ng/mL.

**Q.** What about the Tmax [1, 4] of the same molecule?
**A.** Its Tmax is 43 min.

**Q.** And the AUC(0-t) at 6 h [1, 5]?
**A.** The AUC(0-t) at 6 h was 107 ± 14.6 ng·h/mL.

**Q.** What about the Cmax [1, 5] of the same molecule?
**A.** The Cmax was 139 ± 20.9 ng/mL.

**Q.** What about the Tmax [1, 5] of the same molecule?
**A.** The Tmax was 55 min.

**Q.** And the AUC(0-t) at 6 h [1, 6]?
**A.** Its AUC(0-t) at 6 h is 50.7 ± 16.5 ng·h/mL.

**Q.** What about the Cmax [1, 6] of the same molecule?
**A.** Its Cmax is 87.4 ± 30.2 ng/mL.

**Q.** And the Tmax [1, 6]?
**A.** Its Tmax is 29 min.

**Q.** What about the AUC(0-t) at 6 h [1, 7] of the same molecule?
**A.** The AUC(0-t) at 6 h was 40.4 ± 7.8 ng·h/mL.

**Q.** And the Cmax [1, 7]?
**A.** Its Cmax is 61.5 ± 26.3 ng/mL.

**Q.** What about the Tmax [1, 7] of the same molecule?
**A.** Its Tmax is 45 min.

**Q.** What about the AUC(0-t) at 6 h [1, 8] of the same molecule?
**A.** The AUC(0-t) at 6 h was 15.2 ± 2.8 ng·h/mL.

**Q.** And the Cmax [1, 8]?
**A.** The Cmax was 21 ± 5.3 ng/mL.

**Q.** And the Tmax [1, 8]?
**A.** The Tmax was 44 min.

**Q.** What about the “increase of AUC value vs no added acid” value ([1]; with citric acid) of the same molecule?
**A.** The value was 3.3 -fold.

**Q.** What about the “increase of AUC value vs no added acid” value ([1]; with tartaric acid) of the same molecule?
**A.** The value was 2.7 -fold.

**Q.** What about the “Addition effect (AUC ratio)” value ([2]; 3 mg/kg oral + L-aspartic acid 15 mg/kg) of the same molecule?
**A.** The value was 2.46.

**Q.** And the “Addition effect (AUC ratio)” value ([2]; 3 mg/kg oral + L-cysteine 15 mg/kg)?
**A.** The value was 1.59.

**Q.** What about the “Addition effect (AUC ratio)” value ([2]; 3 mg/kg oral, none (control)) of the same molecule?
**A.** The value was 1.00.

**Q.** And the “effect relative to that obtained by adding tartaric acid” value ([2]; L-cysteine and L-aspartic acid)?
**A.** Its value is ~2.7 times.

**Q.** What about the AUC(0-t) at 8 h [2, 9] of the same molecule?
**A.** Its AUC(0-t) at 8 h is 37.5 ± 0.2 ng·h/mL.

**Q.** What about the Cmax [2, 9] of the same molecule?
**A.** Its Cmax is 48.2 ± 2.5 ng/mL.

**Q.** What about the Tmax [2, 9] of the same molecule?
**A.** The Tmax was 45 ± 15 min.

**Q.** And the AUC(0-t) at 8 h [2, 10]?
**A.** Its AUC(0-t) at 8 h is 24.4 ± 1 ng·h/mL.

**Q.** What about the Cmax [2, 10] of the same molecule?
**A.** Its Cmax is 15.3 ± 2.7 ng/mL.

**Q.** And the Tmax [2, 10]?
**A.** The Tmax was 70.2 ± 50.4 min.

**Q.** What about the Cmax [2, 11] of the same molecule?
**A.** The Cmax was 21 ± 5.3 ng/mL.

**Q.** What about the Tmax [2, 11] of the same molecule?
**A.** The Tmax was 43.8 ± 16.8 min.

**Q.** What about the “increase of AUC value” ([2]; with L-aspartic acid) of the same molecule?
**A.** Its value is 2.46 -fold.

**Q.** And the “increase of AUC value” ([2]; with L-cysteine)?
**A.** Its value is 1.59 -fold.
